Holding throughout (type): functional
Assay [1] relates to Haemophilus influenzae. The experiment in a line: Antibacterial activity against Haemophilus influenzae 49247.
Assay [2] deals with Pseudomonas aeruginosa. The experiment in a line: Antibacterial activity against permeable mutant Pseudomonas aeruginosa 2033E.
The test system of assay [3] is Bacteroides fragilis. As to the kind of experiment: Antibacterial activity against Bacteroides fragilis 2017E.
For assay [4], the system named is Enterococcus faecalis. The experiment in a line: Antibacterial activity against Enterococcus faecalis 850.
Assay [5] has as its system Escherichia coli. As to the kind of experiment: Antibacterial activity against wild Escherichia coli DC0.
For assay [6], the system named is Clostridium perfringens. As to the kind of experiment: Antibacterial activity against Clostridium perfringens 615E.
Assay [7] deals with Staphylococcus aureus. As to the kind of experiment: Antibacterial activity against penicillin sensitive Staphylococcus aureus 663E.
In assay [8] the test system is Staphylococcus aureus. The experiment in a line: Antibacterial activity against methicillin resistant Staphylococcus aureus COL.
Assay [9] relates to Escherichia coli. As to the kind of experiment: Antibacterial activity against permeable beta-lactamase producing Escherichia coli DC2 TEML.
The subject of assay [10] is Pseudomonas aeruginosa. The experiment in a line: Antibacterial activity against Pseudomonas aeruginosa 2032E WT.
Assay [11] relates to Staphylococcus aureus. As to the kind of experiment: Antibacterial activity against beta-lactamase producing Staphylococcus aureus 853E.
Assay [12] relates to Enterobacter cloacae. The experiment in a line: Antibacterial activity against permeable beta-lactamase producing Enterobacter cloacae 3647.
In assay [13] the test system is Escherichia coli. As to the kind of experiment: Antibacterial activity against permeable Escherichia coli DC2.
The subject of assay [14] is Proteus mirabilis. The experiment in a line: Antibacterial activity against permeable beta-lactamase producing Proteus mirabilis 355.
Assay [15] has as its system Pseudomonas aeruginosa. The experiment in a line: Antibacterial activity against Pseudomonas aeruginosa 1911E.
The test system of assay [16] is Staphylococcus aureus. The experiment in a line: Antibacterial activity against methicillin resistant Staphylococcus aureus 1131.

Among the data in ChEMBL document CHEMBL1128062, “Tricyclic -lactams: total synthesis and antibacterial activity of 5- and 5-methoxy-tribactams” (1995) are MIC values, retold here.

Take `CC1(C)CCC2(C)CCC(C)(C)NC2=N1.CO[C@@H]1CC[C@H]2C(=C(C(=O)O)N3C(=O)[C@H]([C@@H](C)O)[C@@H]23)C1`: the MIC is 16 mg/L in assay [1]; 16 mg/L in [2]; 32 mg/L in assay [3]; > 32 mg/L in [4]; 16 mg/L in [5]; 8 mg/L in assay [6]. The MIC is 1 mg/L in [7]; > 32 mg/L in assay [8]; 1 mg/L in [9]; > 32 mg/L in assay [10]; 1 mg/L in assay [11]; 16 mg/L in [12]. In addition, the MIC is 0.5 mg/L in assay [13], 32 mg/L in assay [14], > 32 mg/L in assay [15] and > 32 mg/L in assay [16].

`C[C@@H](O)[C@H]1C(=O)N2C(C(=O)O)=C(SCCNC=N)C[C@H]12.O` [IMIPENEM]: the MIC in assay [1] was determined as 1 mg/L; in assay [2] it was 0.5 mg/L; in assay [3] it was 0.13 mg/L; in assay [4] it was 1 mg/L; in [5], 0.5 mg/L; in assay [6], 0.06 mg/L. The MIC in assay [7] is 0.13 mg/L; in [8] it was > 32 mg/L; in assay [9], 0.5 mg/L; in assay [10] it was 4 mg/L; in assay [11] it was 0.13 mg/L; in assay [12], 2 mg/L. For the same molecule, the MIC in [13] worked out at 0.5 mg/L; in [14] it was 1 mg/L; in assay [15], 4 mg/L; in assay [16], 4 mg/L.

Consider `CC1(C)CCC2(C)CCC(C)(C)NC2=N1.CO[C@H]1CC[C@H]2C(=C(C(=O)O)N3C(=O)[C@H]([C@@H](C)O)[C@@H]23)C1`, for which the MIC in assay [1] amounted to 0.5 mg/L; in [2], 1 mg/L; in assay [3], 1 mg/L; in assay [4], 4 mg/L; in [5], 1 mg/L; in assay [6], 0.5 mg/L. The MIC in assay [7] was 0.25 mg/L; in [8], > 32 mg/L; in [9], 1 mg/L; in [10] it was > 32 mg/L; in assay [11], 0.5 mg/L; in assay [12] it was 1 mg/L. For the same molecule, the MIC was 1 mg/L in [13], 4 mg/L in assay [14], > 32 mg/L in assay [15] and 32 mg/L in [16].
